Test results published in ChEMBL document CHEMBL1201862, “PubChem BioAssay data set” (2004).
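Method: 48-hour compound exposure of cells in 96-well plates, five concentrations, linear interpolation of endpoints. GI50 is the concentration that inhibits growth by half.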 The source made the active and inactive calls. No stated cut-off is given here; in the data, active = GI50 up to about 1.1 µM and inactive = higher.

Legend:
Test in all cases: inhibition of tumour cell growth, NCI panel, 48 h
[1] = system: IGROV-1
[2] = system: BT-549
[3] = system: SW-620
[4] = system: RXF 393
[5] = system: A498
[6] = system: OVCAR-4
[7] = system: HOP-92
[8] = system: SN12C
[9] = system: HT-29
[10] = system: SNB-75
[11] = system: CAKI-1
[12] = system: MDA-N
[13] = system: RPMI-8226
[14] = system: SF-539
[15] = system: K562
[16] = system: LOX IMVI
[17] = system: SK-MEL-2
[18] = system: OVCAR-8
[19] = system: TK-10
[20] = system: OVCAR-5

| SMILES | GI50 [1] | GI50 [2] | GI50 [3] | GI50 [4] | GI50 [5] | GI50 [6] | GI50 [7] | GI50 [8] | GI50 [9] | GI50 [10] | GI50 [11] | GI50 [12] | GI50 [13] | GI50 [14] | GI50 [15] | GI50 [16] | GI50 [17] | GI50 [18] | GI50 [19] | GI50 [20] |
| --- | --- | --- | --- | --- | --- | --- | --- | --- | --- | --- | --- | --- | --- | --- | --- | --- | --- | --- | --- | --- |
| CN(C)CCCNc1c(C#N)[n+]([O-])c2cc(Cl)ccc2[n+]1[O-] | 1.71 µM (inactive) | 6.79 µM (inactive) | 9.14 µM (inactive) | 21.2 µM (inactive) | 22.1 µM (inactive) | 4.75 µM (inactive) | 2.69 µM (inactive) | 17.9 µM (inactive) | 5.58 µM (inactive) | 31.9 µM (inactive) | 7.91 µM (inactive) | 17.7 µM (inactive) | 3.27 µM (inactive) | 14.1 µM (inactive) | 3.92 µM (inactive) | 10.2 µM (inactive) | 9.62 µM (inactive) | 11.7 µM (inactive) | 6.4 µM (inactive) | > 61.7 µM (inactive) |
| Cc1nc2c(sc3nc4ccccc4n32)c(=O)[nH]1 | > 100 µM (inactive) | > 100 µM (inactive) | > 100 µM (inactive) | > 100 µM (inactive) | > 100 µM (inactive) | > 100 µM (inactive) | > 100 µM (inactive) | – | – | > 100 µM (inactive) | > 100 µM (inactive) | > 100 µM (inactive) | > 100 µM (inactive) | > 100 µM (inactive) | – | > 100 µM (inactive) | > 100 µM (inactive) | 42.5 µM (inactive) | > 100 µM (inactive) | > 100 µM (inactive) |
| COc1ccc(N2C(=O)CC(c3c[nH]c4ncccc34)C2=O)cc1 (stereo unspecified) | 21.3 µM (inactive) | 17.5 µM (inactive) | 18.2 µM (inactive) | 23.9 µM (inactive) | 58.5 µM (inactive) | 22.8 µM (inactive) | 19.7 µM (inactive) | 18.5 µM (inactive) | 19.8 µM (inactive) | > 100 µM (inactive) | 19.7 µM (inactive) | 14.2 µM (inactive) | > 100 µM (inactive) | > 47.2 µM (inactive) | 8.09 µM (inactive) | > 100 µM (inactive) | 36.1 µM (inactive) | 19.7 µM (inactive) | 14.2 µM (inactive) | 63.2 µM (inactive) |
| CC(=O)CCN1CC2CN=NC2(C#N)C1 (stereo unspecified) | > 100 µM (inactive) | > 100 µM (inactive) | 17 µM (inactive) | 94.4 µM (inactive) | > 100 µM (inactive) | > 100 µM (inactive) | 22.3 µM (inactive) | > 100 µM (inactive) | > 100 µM (inactive) | > 100 µM (inactive) | 0.379 µM (active) | 75.7 µM (inactive) | – | – | 6.7 µM (inactive) | 49 µM (inactive) | > 100 µM (inactive) | > 100 µM (inactive) | > 100 µM (inactive) | > 100 µM (inactive) |
| Fc1cc2nc3n(c2cc1F)C(c1c(Cl)cccc1Cl)SC3 (stereo unspecified) | 18.5 µM (inactive) | 21.8 µM (inactive) | 18 µM (inactive) | 14.9 µM (inactive) | 20.1 µM (inactive) | 15.9 µM (inactive) | 13.6 µM (inactive) | 16.3 µM (inactive) | 16.2 µM (inactive) | 13.7 µM (inactive) | 14.1 µM (inactive) | 15.7 µM (inactive) | 11.9 µM (inactive) | 20.5 µM (inactive) | – | 16.3 µM (inactive) | 17.1 µM (inactive) | 16 µM (inactive) | 18.2 µM (inactive) | 14.3 µM (inactive) |
| CCOC(=O)C(O)(C(=O)OCC)c1cc(C(C)(C)C)c(O)c(C(C)(C)C)c1 | 45 µM (inactive) | 39.2 µM (inactive) | 37 µM (inactive) | 21.1 µM (inactive) | 50.8 µM (inactive) | > 100 µM (inactive) | 26.9 µM (inactive) | 43.4 µM (inactive) | 28.1 µM (inactive) | 27.4 µM (inactive) | 41.2 µM (inactive) | 36.4 µM (inactive) | 26.1 µM (inactive) | 28.4 µM (inactive) | 33.6 µM (inactive) | 37.2 µM (inactive) | 27.7 µM (inactive) | 15.5 µM (inactive) | 34.5 µM (inactive) | 41.2 µM (inactive) |
| COc1cccc(CCNc2c(C#N)c3n(c4ccccc4[n+]3C)c3ncccc23)c1 | – | 23.3 µM (inactive) | 2.47 µM (inactive) | 13.5 µM (inactive) | 20.9 µM (inactive) | 2.04 µM (inactive) | 27.7 µM (inactive) | 15.9 µM (inactive) | 1.41 µM (inactive) | 5.96 µM (inactive) | 6.52 µM (inactive) | 5.2 µM (inactive) | 2.71 µM (inactive) | 1.58 µM (inactive) | 2.39 µM (inactive) | 1.74 µM (inactive) | 21.4 µM (inactive) | 1.7 µM (inactive) | 21.2 µM (inactive) | 15.3 µM (inactive) |
| CN(C)CCCNc1c2c(=O)n(C)c(=O)nc-2n(C)c2ccccc12 | 15.6 µM (inactive) | 12.7 µM (inactive) | 3.7 µM (inactive) | 7.8 µM (inactive) | 9.27 µM (inactive) | 4.72 µM (inactive) | 17 µM (inactive) | 4.43 µM (inactive) | 4.26 µM (inactive) | 5.15 µM (inactive) | 7.13 µM (inactive) | 4.2 µM (inactive) | 7.1 µM (inactive) | 6.73 µM (inactive) | 4.8 µM (inactive) | 3.87 µM (inactive) | 2.52 µM (inactive) | 4.83 µM (inactive) | 5.26 µM (inactive) | 6.1 µM (inactive) |
| Nc1ncnc2c1ncn2[C@H]1CC[C@@H](NO)C1 | > 100 µM (inactive) | > 100 µM (inactive) | > 100 µM (inactive) | > 100 µM (inactive) | > 100 µM (inactive) | > 100 µM (inactive) | > 100 µM (inactive) | > 100 µM (inactive) | – | > 100 µM (inactive) | > 100 µM (inactive) | > 100 µM (inactive) | > 100 µM (inactive) | > 100 µM (inactive) | > 100 µM (inactive) | > 100 µM (inactive) | > 100 µM (inactive) | > 100 µM (inactive) | > 100 µM (inactive) | > 100 µM (inactive) |
| C[C@H](CC[C@@H](O)C(C)(C)O)[C@H]1CC[C@@]2(C)[C@@H]3CC=C4[C@@H](CC[C@H](OC5OC(CO)C(O)C(O)C5O)C4(C)C)[C@]3(C)C(=O)C[C@]12C (stereo partly specified) | 19.8 µM (inactive) | 56.5 µM (inactive) | 4.03 µM (inactive) | 35.2 µM (inactive) | > 100 µM (inactive) | 45.3 µM (inactive) | > 100 µM (inactive) | 69 µM (inactive) | 26.1 µM (inactive) | 34.3 µM (inactive) | 65 µM (inactive) | 32.7 µM (inactive) | – | > 100 µM (inactive) | 18.9 µM (inactive) | 39 µM (inactive) | 26.3 µM (inactive) | > 100 µM (inactive) | 60.8 µM (inactive) | > 100 µM (inactive) |
| O=C1C(=CNc2ccccc2Cl)C(=O)N(c2ccccc2)C(=O)N1c1ccccc1 | > 100 µM (inactive) | > 100 µM (inactive) | > 100 µM (inactive) | > 100 µM (inactive) | 85.1 µM (inactive) | > 100 µM (inactive) | > 100 µM (inactive) | > 100 µM (inactive) | > 100 µM (inactive) | – | > 100 µM (inactive) | > 100 µM (inactive) | > 100 µM (inactive) | > 100 µM (inactive) | > 100 µM (inactive) | > 100 µM (inactive) | 27.9 µM (inactive) | 23.7 µM (inactive) | > 100 µM (inactive) | > 100 µM (inactive) |
| C[C@@H]1CC[C@@]2(C)C(C(=O)O)=CCCC2[C@@]1(C)CC(=O)c1ccoc1 (stereo partly specified) | > 25 µM (inactive) | > 25 µM (inactive) | > 25 µM (inactive) | > 25 µM (inactive) | > 25 µM (inactive) | > 25 µM (inactive) | > 25 µM (inactive) | > 25 µM (inactive) | > 25 µM (inactive) | > 25 µM (inactive) | > 25 µM (inactive) | > 25 µM (inactive) | > 25 µM (inactive) | > 25 µM (inactive) | – | > 25 µM (inactive) | > 25 µM (inactive) | > 25 µM (inactive) | > 25 µM (inactive) | > 25 µM (inactive) |
| COc1ccc(COCC[C@H](C)OC2OC(CO[Si](C)(C)C(C)(C)C)C(OC(=O)CCCN=[N+]=[N-])C(OC(=O)CCCN=[N+]=[N-])C2OC(=O)CCCN=[N+]=[N-])cc1 (stereo partly specified) | 51.5 µM (inactive) | 22.2 µM (inactive) | > 100 µM (inactive) | 98.2 µM (inactive) | > 100 µM (inactive) | 27.9 µM (inactive) | > 100 µM (inactive) | 78.3 µM (inactive) | 22.3 µM (inactive) | 14.2 µM (inactive) | 36.9 µM (inactive) | 44.9 µM (inactive) | – | 27.5 µM (inactive) | – | 25.2 µM (inactive) | > 100 µM (inactive) | 19.7 µM (inactive) | > 100 µM (inactive) | 89.1 µM (inactive) |
| COc1ccc2c(c1OC)C(Br)CCC(Br)(Br)C2=O (stereo unspecified) | 5.83 µM (inactive) | 7.87 µM (inactive) | 2.25 µM (inactive) | 3.91 µM (inactive) | 16 µM (inactive) | 6 µM (inactive) | 3.52 µM (inactive) | 4.83 µM (inactive) | 4.43 µM (inactive) | – | 1.78 µM (inactive) | 3.99 µM (inactive) | 4.81 µM (inactive) | 3.17 µM (inactive) | 2.79 µM (inactive) | 2.93 µM (inactive) | 14.4 µM (inactive) | 7.45 µM (inactive) | 6.79 µM (inactive) | 17.5 µM (inactive) |
